“And” between values parts separate entries of the source, which are not always exact repeats. Equal values may be shown once. Inconclusive results and toxic doses are left out. No stated cut-off is given here; in the data, active means T/C of 150% or more; inactive means T/C below 125%.
System: L1210 leukemia ip in BDF1 mice, survival T/C
Assay: NCI In Vivo Anticancer Drug Screen. Data for tumor model L1210 Leukemia (intraperitoneal) in B6D2F1 (BDF1) mice
Details: endpoint: mean survival time, higher = longer survival
Summary of the method: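 Tumor cells were implanted, animals were treated, and survival was followed. The result divides the treated measurement by the vehicle-control measurement.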

[1] = dose: 100.0 mg/kg/injection, schedule: Q04DX003 (ip), vehicle: Klucel (hydroxypropylcellulose) (HPC)
[2] = dose: 200.0 mg/kg/injection, schedule: Q04DX003 (ip), vehicle: Klucel (hydroxypropylcellulose) (HPC)
[3] = dose: 400.0 mg/kg/injection, schedule: Q04DX003 (ip), vehicle: Klucel (hydroxypropylcellulose) (HPC)
[4] = dose: 100.0 mg/kg/injection, schedule: Q04DX003 (ip), vehicle: saline
[5] = dose: 200.0 mg/kg/injection, schedule: Q04DX003 (ip), vehicle: saline
[6] = dose: 400.0 mg/kg/injection, schedule: Q04DX003 (ip), vehicle: saline
[7] = dose: 25.0 mg/kg/injection, schedule: Q01DX009 (ip), vehicle: saline with Tween-80
[8] = dose: 50.0 mg/kg/injection, schedule: Q01DX009 (ip), vehicle: saline with Tween-80
[9] = dose: 100.0 mg/kg/injection, schedule: Q04DX003 (ip), vehicle: saline with Tween-80
[10] = dose: 100.0 mg/kg/injection, schedule: Q01DX009 (ip), vehicle: Klucel (hydroxypropylcellulose) (HPC)
[11] = dose: 100.0 mg/kg/injection, schedule: Q01DX001 (ip), vehicle: saline
[12] = dose: 200.0 mg/kg/injection, schedule: Q01DX001 (ip), vehicle: saline
[13] = dose: 400.0 mg/kg/injection, schedule: Q01DX001 (ip), vehicle: saline

Measured: T/C

CS(=O)(=O)OCCN(CCOS(C)(=O)=O)c1ccc(C=Nc2cccc(Br)c2)c(Cl)c1
inactive: [1] 111 % of control | [2] 111 % of control | [3] 120 % of control

O=S1(=O)CCOCC1
inactive: dose: 100.0 mg/kg/injection, schedule: Q01DX009 (ip), vehicle: saline sonified 105 % of control | [4] 97 % of control | dose: 200.0 mg/kg/injection, schedule: Q01DX009 (ip), vehicle: saline sonified 97 % of control | [5] 95 % of control | dose: 400.0 mg/kg/injection, schedule: Q01DX009 (ip), vehicle: saline sonified 102 % of control | [6] 105 % of control

O=C1C(Cc2ccccc2)C(=O)N(Cc2ccccc2)C(=O)N1Cc1ccccc1
inactive: dose: 100.0 mg/kg/injection, schedule: Q01DX001 (ip), vehicle: carboxymethylcellulose (CMC) 88 % of control | dose: 200.0 mg/kg/injection, schedule: Q01DX001 (ip), vehicle: carboxymethylcellulose (CMC) 90 % of control | dose: 400.0 mg/kg/injection, schedule: Q01DX001 (ip), vehicle: carboxymethylcellulose (CMC) 88 % of control

CCCCCCCC1N(C)CCCN1C
inactive: [7] 88 % of control | dose: 25.0 mg/kg/injection, schedule: Q04DX003 (ip), vehicle: saline with Tween-80 93 % of control | [8] 95 % of control | dose: 50.0 mg/kg/injection, schedule: Q04DX003 (ip), vehicle: saline with Tween-80 96 % of control | [9] 95 % of control and 92 % of control

O=[N+]([O-])c1cc(C(F)(F)F)ccc1/C=C/c1ccccc1Br
inactive: [9] 105 % of control | dose: 200.0 mg/kg/injection, schedule: Q04DX003 (ip), vehicle: saline with Tween-80 97 % of control | dose: 400.0 mg/kg/injection, schedule: Q04DX003 (ip), vehicle: saline with Tween-80 101 % of control

CCCCCCCC(=O)Oc1ccc(C)cc1
inactive: dose: 100.0 mg/kg/injection, schedule: Q01DX Z (ip), vehicle: carboxymethylcellulose (CMC) 103 % of control | dose: 150.0 mg/kg/injection, schedule: Q01DX Z (ip), vehicle: carboxymethylcellulose (CMC) 106 % of control | dose: 225.0 mg/kg/injection, schedule: Q01DX Z (ip), vehicle: carboxymethylcellulose (CMC) 97 % of control

CCCCCCCCCCCCCCCCCCOC(=O)Cc1ccc(N(CCCl)CCCl)cc1
inactive: [10] 105 % of control | [1] 100 % of control | dose: 200.0 mg/kg/injection, schedule: Q01DX009 (ip), vehicle: Klucel (hydroxypropylcellulose) (HPC) 110 % of control | [2] 109 % of control | dose: 400.0 mg/kg/injection, schedule: Q01DX009 (ip), vehicle: Klucel (hydroxypropylcellulose) (HPC) 115 % of control | [3] 105 % of control

CS(=O)(=O)OCCN1C(=O)NC(c2ccccc2)(c2ccccc2)C1=O
inactive: [11] 94 % of control | dose: 100.0 mg/kg/injection, schedule: Q01DX009 (ip), vehicle: saline 97 % of control | [4] 107 % of control | [12] 94 % of control | dose: 200.0 mg/kg/injection, schedule: Q01DX009 (ip), vehicle: saline 96 % of control | [5] 93 % of control | [13] 100 % of control | dose: 400.0 mg/kg/injection, schedule: Q01DX009 (ip), vehicle: saline 97 % of control | [6] 101 % of control

CCN(CC)/N=N/c1nc[nH]c1C(N)=O
inactive: dose: 12.5 mg/kg/injection, schedule: Q01DX009 (ip), vehicle: water 100 % of control | dose: 25.0 mg/kg/injection, schedule: Q01DX009 (ip), vehicle: Klucel (hydroxypropylcellulose) (HPC) 117 % of control | dose: 25.0 mg/kg/injection, schedule: Q01DX009 (ip), vehicle: water 101 % of control | dose: 50.0 mg/kg/injection, schedule: Q01DX001 (ip), vehicle: water 102 % of control | dose: 50.0 mg/kg/injection, schedule: Q01DX009 (ip), vehicle: Klucel (hydroxypropylcellulose) (HPC) 111 % of control | dose: 50.0 mg/kg/injection, schedule: Q01DX009 (ip), vehicle: water 98 % of control and 104 % of control | dose: 50.0 mg/kg/injection, schedule: Q04DX003 (ip), vehicle: water 101 % of control | dose: 100.0 mg/kg/injection, schedule: Q01DX001 (ip), vehicle: Klucel (hydroxypropylcellulose) (HPC) 104 % of control | dose: 100.0 mg/kg/injection, schedule: Q01DX001 (ip), vehicle: water 103 % of control | [10] 114 % of control | dose: 100.0 mg/kg/injection, schedule: Q01DX009 (ip), vehicle: water 105 % of control and 86 % of control | [1] 102 % of control | dose: 100.0 mg/kg/injection, schedule: Q04DX003 (ip), vehicle: water 102 % of control | dose: 200.0 mg/kg/injection, schedule: Q01DX001 (ip), vehicle: Klucel (hydroxypropylcellulose) (HPC) 101 % of control | dose: 200.0 mg/kg/injection, schedule: Q01DX001 (ip), vehicle: water 100 % of control | [2] 108 % of control | dose: 200.0 mg/kg/injection, schedule: Q04DX003 (ip), vehicle: water 110 % of control | dose: 400.0 mg/kg/injection, schedule: Q01DX001 (ip), vehicle: Klucel (hydroxypropylcellulose) (HPC) 113 % of control | dose: 400.0 mg/kg/injection, schedule: Q01DX001 (ip), vehicle: water 113 % of control | [3] 119 % of control | dose: 400.0 mg/kg/injection, schedule: Q04DX003 (ip), vehicle: water 111 % of control

CC1CC[N-]CC1.CC1CC[N-]CC1.CC1CC[N-]CC1.CC1CC[N-]CC1.O=C([O-])C(=O)[O-].O=C([O-])C(=O)[O-].[Nb+5].[O-][O-].[O-][O-].[Pt+4]
inactive: dose: 0.25 mg/kg/injection, schedule: Q01DX009 (ip), vehicle: saline 96 % of control | dose: 0.39 mg/kg/injection, schedule: Q04DX003 (ip), vehicle: saline 110 % of control | dose: 0.5 mg/kg/injection, schedule: Q01DX009 (ip), vehicle: saline 93 % of control | dose: 0.78 mg/kg/injection, schedule: Q04DX003 (ip), vehicle: saline 110 % of control | dose: 1.0 mg/kg/injection, schedule: Q01DX009 (ip), vehicle: saline 98 % of control | dose: 1.56 mg/kg/injection, schedule: Q04DX003 (ip), vehicle: saline 101 % of control | dose: 2.0 mg/kg/injection, schedule: Q01DX009 (ip), vehicle: saline 102 % of control | dose: 3.12 mg/kg/injection, schedule: Q04DX003 (ip), vehicle: saline 96 % of control and 111 % of control

CCOP(=O)(OCC)C(c1ccccc1)C(c1ccccc1)c1ccccc1 (stereo unspecified)
inactive: dose: 100.0 mg/kg/injection, schedule: Q04DX003 (ip), vehicle: other 97 % of control | dose: 200.0 mg/kg/injection, schedule: Q04DX003 (ip), vehicle: other 93 % of control | dose: 400.0 mg/kg/injection, schedule: Q04DX003 (ip), vehicle: other 101 % of control

CN(CC1CNc2nc(N)[nH]c(=O)c2N1C)c1ccc(C(=O)NC(CCC(=O)O)C(=O)O)cc1 (stereo unspecified)
inactive: [11] 94 % of control | [12] 102 % of control | [13] 94 % of control

COC(=O)C1ON(C(=O)c2ccccc2)C(C)C(O)C1I (stereo unspecified)
inactive: [1] 96 % of control | [2] 97 % of control | [3] 92 % of control

N#CCc1cc2c(cc1[N+](=O)[O-])OCO2
inactive: [11] 97 % of control | [12] 87 % of control | [13] 97 % of control

Cc1nc2ccc(N=Cc3ccc(N(CCCl)CCCl)cc3C)cc2[nH]1
inactive: [1] 104 % of control | [2] 102 % of control | [3] 101 % of control

CN(C)C(c1ccccc1)C(O)c1ccccc1 (stereo unspecified)
inactive: dose: 75.0 mg/kg/injection, schedule: Q01DX001 (ip), vehicle: saline 94 % of control and 98 % of control | dose: 150.0 mg/kg/injection, schedule: Q01DX001 (ip), vehicle: saline 97 % of control and 102 % of control | dose: 300.0 mg/kg/injection, schedule: Q01DX001 (ip), vehicle: saline 89 % of control and 96 % of control

CC(C)(C)CC(C)(C)N=C=S
inactive: [7] 100 % of control | [8] 94 % of control | dose: 100.0 mg/kg/injection, schedule: Q01DX009 (ip), vehicle: saline with Tween-80 96 % of control and 97 % of control

CCOC(=O)Cc1c(C(=O)OCC)nnn1-c1ccc([N+](=O)[O-])cc1
inactive: dose: 100.0 mg/kg/injection, schedule: Q04DX002 (ip), vehicle: Klucel (hydroxypropylcellulose) (HPC) 97 % of control | dose: 200.0 mg/kg/injection, schedule: Q04DX002 (ip), vehicle: Klucel (hydroxypropylcellulose) (HPC) 97 % of control | dose: 400.0 mg/kg/injection, schedule: Q04DX002 (ip), vehicle: Klucel (hydroxypropylcellulose) (HPC) 93 % of control
